The record followed here is patent publication US20250122190A1, “HALOGEN-SUBSTITUTED PYRIDAZINONE COMPOUND AND APPLICATION THEREOF” (MEDSHINE DISCOVERY INC., priority 2021, published 2025).

Read-outs that look alike come from different tables or passages of the source.

In one data set the target is T1, hTRPC5-T478C (Homo sapiens, UniProt Q9UL62).
T1 sequence (Q9UL62 1-973): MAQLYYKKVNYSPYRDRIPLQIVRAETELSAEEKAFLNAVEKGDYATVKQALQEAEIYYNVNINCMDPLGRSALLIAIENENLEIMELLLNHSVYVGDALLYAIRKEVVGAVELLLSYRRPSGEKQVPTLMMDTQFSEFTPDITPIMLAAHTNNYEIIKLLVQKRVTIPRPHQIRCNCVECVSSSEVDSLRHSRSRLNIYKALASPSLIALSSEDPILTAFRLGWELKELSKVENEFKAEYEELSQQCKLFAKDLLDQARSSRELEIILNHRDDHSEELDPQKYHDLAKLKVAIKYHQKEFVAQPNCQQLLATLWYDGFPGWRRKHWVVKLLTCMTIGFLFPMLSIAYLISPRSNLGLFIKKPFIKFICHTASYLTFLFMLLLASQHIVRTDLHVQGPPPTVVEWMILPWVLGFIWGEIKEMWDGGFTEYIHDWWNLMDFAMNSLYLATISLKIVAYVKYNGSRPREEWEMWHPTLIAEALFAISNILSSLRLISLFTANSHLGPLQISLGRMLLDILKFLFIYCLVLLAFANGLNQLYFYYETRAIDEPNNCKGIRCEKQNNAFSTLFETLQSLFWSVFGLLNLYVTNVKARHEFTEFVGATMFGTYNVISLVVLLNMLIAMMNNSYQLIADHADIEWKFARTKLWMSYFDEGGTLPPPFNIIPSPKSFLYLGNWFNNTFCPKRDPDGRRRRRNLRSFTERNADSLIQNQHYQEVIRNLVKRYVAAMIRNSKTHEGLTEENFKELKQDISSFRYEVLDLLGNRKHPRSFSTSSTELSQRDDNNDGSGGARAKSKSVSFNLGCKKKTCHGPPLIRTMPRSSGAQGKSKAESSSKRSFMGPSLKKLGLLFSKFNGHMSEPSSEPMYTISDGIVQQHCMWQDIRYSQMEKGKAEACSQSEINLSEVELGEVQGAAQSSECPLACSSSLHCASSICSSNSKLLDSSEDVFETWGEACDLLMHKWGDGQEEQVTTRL
Briefly: hTRPC5-T478C FLIPR calcium flux IC50 assay. Type of data set: cell-based. The following applies: hTRPC5-T478C-HEK cells, Englerin A as channel agonist. The protocol: Cell culture: hTRPC5-T478C-HEK cells were cultured in a humid environment in 5% CO2 at 37° C.
Cell culture medium ingredients: • DMEM, Supplier: Gibco, Catalog No. 11965-092; • FBS, Supplier: Gibco, Catalog No. 10099-141C, Concentration: 10%; • Pen/Strep, Supplier: Invitrogen, Catalog No. 15140-122, Concentration: 1%; • Zeocin, Supplier: Invitrogen, Catalog No. R25005, Concentration: 200 μg/mL; • Blasticidin S, Supplier: Invitrogen, Catalog No. R21001, Concentration: 5 μg/mL.
In general, the TRPC5-T478C cell line was passaged three times weekly. The dilution factor for each passage was 1:3. Once the cells reached about 80% confluence in the T-75 flask, the cell line was digested with trypsin for about 1 minute and the cell suspension was removed from the flask with a pipette. Depending on the dilution ratio, the removed cell suspension would be transferred to another T-75 flask containing cell culture medium. Note that in order to maintain the logarithmic growth of the cells, the confluence of the cells should be maintained at the subconfluent stage and the cells should be passaged once every 2 to 3 days depending on the proliferation rate of the cell line.
(1) Preparation of cell plate: the cells were separated according to the above-mentioned passaging and the cell density and viability were determined using a cell counter. The volume of the cell suspension was adjusted with a cell culture medium. After the density reached to the plating density, 1 μg/mL tetracycline was added to induce hTRPC5-T478C channel expression. The induced hTRPC5-T478C cells were then seeded onto poly-D-lysine (PDL)-coated 384-well plates at a density of 20000 cells/well (30 μL/well). Then the cells were cultured overnight in a cell culture incubator.
(2) Preparation of compound plate: the compounds were generally diluted with DMSO, prepared into a mother liquor and stored in a −20° C. refrigerator. A compound plating program was set on the ECHO processor, and the compounds were plated with ECHO according to the concentration gradient that was already set. In general, 9 concentrations were included with the highest concentration at 10 μM, 3-fold dilution, and 2 replicate wells. Englerin A was used as the channel agonist.
(3) On-machine testing: the cell plates and compound plates were prepared according to the above-mentioned methods. After the cell confluence of the cell plate reached 80%-90%, the cells were removed from the incubator and the testing started. Ca5 dye (Molecular Devices #R8185) was formulated with test buffer. After the cell plate culture medium was removed with Bravo, 25 μL of Ca5 dye was added to each well, and the plate was incubated for 1 hour. After 1 hour, the cell plate and compound plate were placed in FLIPR^TETRA (Molecular Devices, USA) for FLIPR detection.
Data analysis was performed using Excel 2013 (Microsoft, USA) software and GraphPad Prism 6.01 software. The maximum signal was generated by FLIPR software. Data analysis was performed using Excel (2013) and Prism 6.01. Data quality and data stability were controlled using S/B>2.50 and Z factor>0.50. The calculation formula was as follows: S/B=Avg100%/Avg0%; Z factor=1−(3*SD100%+3*SDO %)/|Avg100%-Avg0%.

A short description of data set [1]: Rat group tissue distribution test. Type of data set: in vivo, SD male rats. The following applies: intragastric, SD rats, n = 3; for concentration at 1 h / concentration at 4 h / concentration at 12 h: male, Sprague Dawley, rat, oral, read-out: Average drug concentration. From the text: In this study, SD male rats were selected as the test animals, and the LC/MS/MS method was used to quantitatively determine the drug concentration at different time points in the plasma, cerebrospinal fluid, brain, liver, and kidney of the test compounds administered orally to evaluate the tissue distribution of the test drugs in the rats.
Experimental materials: Sprague Dawley (SD) rats (male, 200-300 g, 7-10 weeks old, Beijing Vital River).
A clear solution or suspension of the test compounds was administered intragastrically into SD rats (fasted) (vehicle: 5% DMSO/10% Kolliphor® HS 15/85% water). […] The mixture was vortexed thoroughly and centrifuged at 3200 g, 4° C. for 10 minutes to obtain the plasma. The cerebrospinal fluid (about 0.02 mL) was collected. The brain, liver, and kidney were collected, rinsed with pre-cooled physiological saline, dried with paper, and then homogenated in a ratio of 1:4 (1 g of tissue: 4 mL of 15 mM phosphate-buffered physiological saline/MeOH (2:1)). The LC-MS/MS method was used to determine the drug concentration, and the Phoenix WinNonlin 6.3 pharmacokinetic software was used to calculate the relevant pharmacokinetic parameters by the non-compartmental model linear logarithmic trapezoidal method.

By IC50 is commonly meant the concentration that inhibits the measured activity by half. Turning to `O=c1[nH]ncc(N2CCc3c(ncnc3Sc3ccc(F)cc3C(F)(F)F)C2)c1Cl` [Compound WX002], the IC50 at hTRPC5-T478C came to 27 nM.

In the case of `O=c1[nH]ncc(N2CCc3c(ncnc3Oc3ccc(F)cc3Br)C2)c1Cl` [Compound WX004], the IC50 at hTRPC5-T478C came to 40 nM.

With `O=c1[nH]ncc(N2CCc3c(ncnc3Oc3ccc(F)cc3C(F)(F)F)C2)c1Br` [Compound WX009], the IC50 at hTRPC5-T478C is 37 nM.

In the case of `CC(F)(F)c1cc(F)ccc1Oc1ncnc2c1CCN(c1cn[nH]c(=O)c1Cl)C2` [Compound WX010], the IC50 on hTRPC5-T478C turned out to be 71 nM.

For `COCc1nc2c(c(Oc3ccc(F)cc3C(F)(F)F)n1)CCN(c1cn[nH]c(=O)c1Cl)C2` [Compound WX011], the IC50 at hTRPC5-T478C turned out to be 80 nM.

In the case of `O=c1[nH]ncc(N2CCc3c(nc(CO)nc3Sc3ccc(F)cc3C(F)(F)F)C2)c1Cl` [Compound WX012], on hTRPC5-T478C, the IC50 was 24 nM. The Average drug concentration result in data set [1] (Brain, 12 h) is “BQL”. Further, the concentration at 1 h in data set [1] (Brain) is 282 nM; in data set [1] (Kidney), 2630 nM; in data set [1] (Liver), 5120 nM; in data set [1] (Plasma), 773 nM. For the same molecule, the concentration at 4 h in data set [1] (Brain) stood at 373 nM; in data set [1] (Kidney) it was 3440 nM; in data set [1] (Liver), 5820 nM; in data set [1] (Plasma), 1080 nM. For the same molecule, the concentration at 12 h in data set [1] (Kidney, 12 h) is 276 nM; in data set [1] (Liver, 12 h), 570 nM; in data set [1] (Plasma, 12 h) it was 82.7 nM.

For the molecule `Nc1nc2c(c(Sc3ccc(F)cc3C(F)(F)F)n1)CCN(c1cn[nH]c(=O)c1Cl)C2` [Compound WX013], the IC50 at hTRPC5-T478C worked out at 55.7 nM. Moreover, the concentration at 1 h in data set [1] (Brain) amounted to 139 nM; in data set [1] (Kidney), 1260 nM; in data set [1] (Liver) it was 2610 nM; in data set [1] (Plasma) it was 536 nM. The concentration at 4 h in data set [1] (Brain) is 197 nM; in data set [1] (Kidney), 1470 nM; in data set [1] (Liver), 3360 nM; in data set [1] (Plasma), 716 nM. Besides, the concentration at 12 h in data set [1] (Brain, 12 h) amounted to 86 nM; in data set [1] (Kidney, 12 h) it was 590 nM; in data set [1] (Liver, 12 h), 945 nM; in data set [1] (Plasma, 12 h), 272 nM.
